One block for each compound: values may come before it. Active and inactive are the calls of the source. The rule behind the calls is not given here.
Legend:
[1] = biological target: T1, 5-hydroxytryptamine receptor 6 (Homo sapiens, UniProt P50406); assay: Displacement of [3H]-LSD from human 5-HT6R expressed in HEK293 cells after 1 hr by microbeta plate reader analysis; format: cell-based
[2] = Half life in rat liver microsomes up to 60 mins by HPLC-LC/MS analysis
in vitro = details: rat
[3] = biological target: 5-hydroxytryptamine receptor 2A (Homo sapiens, UniProt P28223); assay: Binding affinity to human 5-HT2AR expressed in HEK293 cells by competitive binding assay; format: cell-based
Sequence of 5-hydroxytryptamine receptor 2A (P28223 whole entry): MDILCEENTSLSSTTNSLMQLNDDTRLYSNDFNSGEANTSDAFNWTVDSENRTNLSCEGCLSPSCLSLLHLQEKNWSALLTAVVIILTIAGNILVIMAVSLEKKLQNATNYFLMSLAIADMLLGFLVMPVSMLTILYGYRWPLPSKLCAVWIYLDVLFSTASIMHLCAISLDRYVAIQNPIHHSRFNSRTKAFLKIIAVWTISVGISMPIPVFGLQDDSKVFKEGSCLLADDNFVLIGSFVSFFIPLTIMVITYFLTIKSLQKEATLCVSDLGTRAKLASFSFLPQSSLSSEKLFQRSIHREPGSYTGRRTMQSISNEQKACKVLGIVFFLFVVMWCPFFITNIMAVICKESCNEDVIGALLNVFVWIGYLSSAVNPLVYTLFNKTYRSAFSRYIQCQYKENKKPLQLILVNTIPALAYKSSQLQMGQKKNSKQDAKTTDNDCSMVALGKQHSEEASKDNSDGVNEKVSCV

5-HT2C receptor = biological target: T2, 5-HT2C receptor (Homo sapiens, UniProt P28335); assay: Inhibition of 5-HT2C receptor (unknown origin) at 10^-6 M relative to control
T2 sequence (P28335 whole entry): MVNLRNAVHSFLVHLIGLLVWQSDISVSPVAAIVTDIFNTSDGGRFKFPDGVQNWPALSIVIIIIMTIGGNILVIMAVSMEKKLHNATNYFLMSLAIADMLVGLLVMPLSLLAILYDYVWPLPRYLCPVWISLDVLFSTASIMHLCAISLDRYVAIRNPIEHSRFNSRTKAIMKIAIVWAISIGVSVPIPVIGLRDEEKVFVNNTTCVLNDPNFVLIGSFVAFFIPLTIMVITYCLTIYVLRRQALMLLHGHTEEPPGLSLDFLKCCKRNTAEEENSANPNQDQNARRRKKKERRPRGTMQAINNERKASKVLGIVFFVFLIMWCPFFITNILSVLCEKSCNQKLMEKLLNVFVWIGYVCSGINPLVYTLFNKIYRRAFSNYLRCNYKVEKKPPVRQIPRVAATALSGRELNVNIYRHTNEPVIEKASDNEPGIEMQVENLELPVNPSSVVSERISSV

D(2) dopamine receptor = D(2) dopamine receptor (Homo sapiens, UniProt P14416); assay: Displacement of [3H]-raclopride from human D2R expressed in HEK293 cells after 1 hr by microbeta plate reader analysis; format: cell-based
Sequence of D(2) dopamine receptor (P14416 whole entry): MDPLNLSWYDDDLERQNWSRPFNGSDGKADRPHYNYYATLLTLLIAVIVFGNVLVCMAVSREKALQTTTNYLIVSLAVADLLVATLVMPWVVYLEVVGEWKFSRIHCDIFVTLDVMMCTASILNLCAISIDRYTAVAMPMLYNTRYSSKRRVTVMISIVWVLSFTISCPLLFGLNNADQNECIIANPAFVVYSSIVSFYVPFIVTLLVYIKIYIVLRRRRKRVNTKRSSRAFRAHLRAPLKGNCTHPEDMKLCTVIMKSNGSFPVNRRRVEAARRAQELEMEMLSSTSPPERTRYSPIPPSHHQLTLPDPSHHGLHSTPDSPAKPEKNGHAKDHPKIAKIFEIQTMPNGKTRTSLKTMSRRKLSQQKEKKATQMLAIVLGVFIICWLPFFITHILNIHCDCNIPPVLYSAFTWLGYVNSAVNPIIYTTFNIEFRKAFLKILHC

[4] = biological target: T3, 5-hydroxytryptamine receptor 1A (Homo sapiens, UniProt P08908); assay: Displacement of [3H]-8-OH-DPAT from human 5-HT1A receptor expressed in HEK293 cells after 1 hr by microbeta plate reader analysis; format: cell-based
T3 sequence (P08908 whole entry): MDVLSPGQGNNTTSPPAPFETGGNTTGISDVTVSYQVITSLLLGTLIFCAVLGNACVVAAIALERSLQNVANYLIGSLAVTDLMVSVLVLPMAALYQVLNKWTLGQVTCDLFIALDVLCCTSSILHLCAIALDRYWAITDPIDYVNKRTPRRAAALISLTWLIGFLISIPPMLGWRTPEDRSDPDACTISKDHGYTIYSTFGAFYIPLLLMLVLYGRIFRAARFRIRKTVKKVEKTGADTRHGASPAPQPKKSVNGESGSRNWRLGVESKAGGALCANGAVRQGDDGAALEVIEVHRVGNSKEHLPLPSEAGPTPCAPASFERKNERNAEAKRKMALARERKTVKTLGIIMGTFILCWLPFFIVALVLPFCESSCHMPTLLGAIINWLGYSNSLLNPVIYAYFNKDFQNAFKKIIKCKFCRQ

[5] = biological target: 5-hydroxytryptamine receptor 7 (Homo sapiens, UniProt P34969); assay: Displacement of [3H]-CT from human 5-HT7 receptor expressed in HEK293 cells after 1 hr by microbeta plate reader analysis; format: cell-based
Sequence of 5-hydroxytryptamine receptor 7 (P34969 whole entry): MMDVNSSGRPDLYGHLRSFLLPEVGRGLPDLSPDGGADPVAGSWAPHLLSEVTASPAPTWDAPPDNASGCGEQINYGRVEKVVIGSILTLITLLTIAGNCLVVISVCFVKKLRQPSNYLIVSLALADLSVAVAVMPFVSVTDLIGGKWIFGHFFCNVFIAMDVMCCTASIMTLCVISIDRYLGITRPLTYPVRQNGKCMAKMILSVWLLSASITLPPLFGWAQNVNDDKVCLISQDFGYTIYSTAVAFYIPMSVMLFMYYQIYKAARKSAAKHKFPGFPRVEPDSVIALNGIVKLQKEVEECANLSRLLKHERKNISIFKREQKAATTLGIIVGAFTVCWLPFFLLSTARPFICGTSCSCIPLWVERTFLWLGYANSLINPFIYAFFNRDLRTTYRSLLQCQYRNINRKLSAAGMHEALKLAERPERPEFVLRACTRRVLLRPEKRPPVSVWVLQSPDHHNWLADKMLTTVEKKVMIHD

Rattus norvegicus = assay: Reversal of phencyclidine-induced memory impairment in Sprague-Dawley rat at 1 to 3 mg/kg, po for 2 hrs followed by phencyclidine treatment 45 mins prior to testing by novel object recognition test; format: functional, organism-based
[6] = biological target: T1, 5-hydroxytryptamine receptor 6; assay: Binding affinity to 5-HT6R (unknown origin) assessed as inhibitory constant

T1 sequence (P50406 whole entry): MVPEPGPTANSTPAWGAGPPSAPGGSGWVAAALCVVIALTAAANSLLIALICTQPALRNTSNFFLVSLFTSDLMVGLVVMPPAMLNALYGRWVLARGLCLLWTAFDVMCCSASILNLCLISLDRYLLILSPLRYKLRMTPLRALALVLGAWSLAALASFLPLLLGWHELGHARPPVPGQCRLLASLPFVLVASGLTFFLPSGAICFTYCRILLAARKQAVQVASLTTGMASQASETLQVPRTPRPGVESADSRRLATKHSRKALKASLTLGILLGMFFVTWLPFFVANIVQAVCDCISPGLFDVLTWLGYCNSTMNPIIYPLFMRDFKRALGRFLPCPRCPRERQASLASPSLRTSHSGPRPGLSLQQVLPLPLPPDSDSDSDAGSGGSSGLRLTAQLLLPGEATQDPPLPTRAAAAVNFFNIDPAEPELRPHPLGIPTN

SMILES: COc1ccc(-c2ccc(CNCCc3c[nH]c4ccccc34)o2)cc1OC
- Ki [1]: 693 nM

SMILES: Clc1cc(Cl)cc(-c2ccc(CNCCc3c[nH]c4ccccc34)o2)c1
- Ki [1]: 266 nM

SMILES: COc1cccc(-c2ccc(CNC(C)Cc3cn(C)c4ccccc34)o2)c1 (stereo unspecified)
- Ki [1]: 1030 nM

SMILES: CC(C)Oc1cccc(-c2ccc(CNCCc3c[nH]c4ccccc34)o2)c1
- Ki [1]: 486 nM

SMILES: O=[N+]([O-])c1ccc(-c2ccc(CNCCc3c[nH]c4ccccc34)o2)cc1
- Ki [1]: 774 nM

SMILES: Cc1nc(N2CCCN(C)CC2)c2c3c(sc2n1)CCC3
- Ki [6]: 198 nM

SMILES: COc1ccc2[nH]c(C)c(CCNCc3ccc(-c4ccc(O)cc4)o3)c2c1
- half-life at 1 h ([2]; liver microsomes): 8 min
- microsomal CLint at 1 h (in vitro; liver microsomes): 184 µL/min/mg
- Ki [3]: 42 nM
- Ki (D(2) dopamine receptor): 167 nM
- Ki [1]: 21 nM
- Ki [5]: 5320 nM

SMILES: CCc1cc2c(N3CCN(C)CC3)nc(C)nc2s1
- Ki [6]: 316 nM

SMILES: c1ccc2c(CCNCc3ccc(-c4ccc5c(c4)OCO5)o3)c[nH]c2c1
- Ki [1]: 220 nM

SMILES: COc1ccc(Cc2nc(N3CCNCC3)nc3cccnc23)c(OC)c1
- Ki [6]: 58 nM

SMILES: COc1ccc2[nH]cc(CCN(C)Cc3ccc(-c4ccc(O)cc4)o3)c2c1
- half-life at 1 h ([2]; microsomes): 10 min
- microsomal CLint at 1 h (in vitro; microsomes): 138 µL/min/mg
- Ki [1]: 199 nM

SMILES: Oc1ccc(-c2ccc(CNCCc3c[nH]c4ncccc34)o2)cc1
- Ki [1]: 531 nM

SMILES: CC(Cc1c[nH]c2ccccc12)NCc1ccc(-c2ccc(O)cc2)o1 (stereo unspecified)
- Ki [1]: 475 nM

SMILES: c1ccc(-c2ccc(CNCCc3c[nH]c4ccccc34)[nH]2)cc1
- Ki [1]: 264 nM

SMILES: c1coc(-c2ccc(CNCCc3c[nH]c4ccccc34)o2)c1
- Ki [1]: 419 nM

SMILES: c1ccc(-c2ccc(CNCCc3c[nH]c4ccccc34)s2)cc1
- Ki [1]: 152 nM

More lines, main results first:

- Ki [1]: 556 nM
SMILES: COc1cccc(-c2ccc(CNCCc3cn(C)c4ccccc34)o2)c1

- half-life at 1 h ([2]; microsomes): 6 min
- microsomal CLint at 1 h (in vitro; microsomes): 251 µL/min/mg
- Ki [3]: 11 nM
- inhibition at 1 µM (5-HT2C receptor): 99%
- Ki (D(2) dopamine receptor): 376 nM
- Ki [1]: 2 nM
- Ki [4]: 1010 nM
- Ki [5]: 895 nM
SMILES: Oc1ccc(-c2ccc(CNCCc3c[nH]c4ccc(F)cc34)o2)cc1

- half-life at 1 h ([2]; microsomes): 14 min
- Ki [3]: 791 nM
- Ki (D(2) dopamine receptor): 1210 nM
- Ki [4]: 3940 nM
- Ki [5]: 8640 nM
SMILES: Fc1ccc2c(CCNCc3cccc(OCC(F)(F)C(F)F)c3)c[nH]c2c1 [IDALOPIRDINE]
- Activity (Rattus norvegicus): Active

- Ki [3]: 843 nM
- Ki (D(2) dopamine receptor): 1020 nM
- Ki [1]: 101 nM
- Ki [4]: 1050 nM
- Ki [5]: 9860 nM
SMILES: COc1ccc2[nH]cc(CCNCc3ccc(-c4cnc5ccccc5c4)o3)c2c1

- Ki [3]: 461 nM
- Ki (D(2) dopamine receptor): 676 nM
- Ki [1]: 91 nM
- Ki [4]: 125 nM
- Ki [5]: 1280 nM
SMILES: c1ccc(-c2ccc(CNCCc3c[nH]c4ccccc34)o2)cc1

- Ki [1]: 201 nM
SMILES: c1ccc2c(-c3ccc(CNCCc4c[nH]c5ccccc45)o3)cccc2c1

- Ki [1]: 303 nM
SMILES: Cn1cc(CCNCc2ccc(-c3ccccc3)o2)c2ccccc21

- Ki [3]: 131 nM
- Ki (D(2) dopamine receptor): 178 nM
- Ki [1]: 14 nM
- Ki [4]: 732 nM
- Ki [5]: 2100 nM
SMILES: COc1cccc2[nH]cc(CCNCc3ccc(-c4ccc(O)cc4)o3)c12

- half-life at 1 h ([2]; microsomes): 96 min
- microsomal CLint at 1 h (in vitro; microsomes): 14.4 µL/min/mg
SMILES: COc1cc2c(cc1OC)C(=O)C(CC1CCN(Cc3ccccc3)CC1)C2 (stereo unspecified) [DONEPEZIL]

- half-life at 1 h ([2]; liver microsomes): 22 min
- microsomal CLint at 1 h (in vitro; liver microsomes): 63.4 µL/min/mg
- Ki [3]: 41 nM
- Ki (D(2) dopamine receptor): 220 nM
- Ki [1]: 3 nM
- Ki [4]: 120 nM
- Ki [5]: 206 nM
SMILES: COc1ccc2[nH]cc(CCNCc3ccc(-c4ccc(O)cc4)o3)c2c1

- Ki [6]: 61 nM
SMILES: CN1CCN(c2oc(-c3ccccc3Cl)nc2S(=O)(=O)c2ccccc2)CC1

- Ki [6]: 875 nM
SMILES: Cc1cc(OCCN(C)C)nc(NCc2ccccc2)n1
